Results as given in ChEMBL document CHEMBL5608141, “Identification of compartment-specific drug sensitivities in CRC organoid-stroma co-cultures” (2024).

Legend:
Format in all cases: functional, Homo sapiens
Parameters in all cases: dose or concentration left out as unconfirmed
[1] = system: Colon cancer organoid; experiment: Identification of compartment-specific drug sensitivities in O06 CRC organoid-stroma F06 CAF co-cultures. Organoid is transduced with Lucferase2-P2A-EGFP lentivirus, fibroblast with Renilla-dsRed lentivirus. Dual-Glo Luciferase assay is used to report viability data.
[2] = system: Colon cancer organoid; experiment: Identification of compartment-specific drug sensitivities in O14 CRC organoid-stroma F14 CAF co-cultures. Organoid is transduced with Lucferase2-P2A-EGFP lentivirus, fibroblast with Renilla-dsRed lentivirus. Dual-Glo Luciferase assay is used to report viability data.
[3] = system: Colon cancer organoid; experiment: Identification of compartment-specific drug sensitivities in O20 CRC organoid-stroma F20 CAF co-cultures. Organoid is transduced with Lucferase2-P2A-EGFP lentivirus, fibroblast with Renilla-dsRed lentivirus. Dual-Glo Luciferase assay is used to report viability data.
[4] = Transduced with Lucferase2-P2A-EGFP lentivirus
[5] = Transduced with Renilla-dsRed lentivirus

SMILES | Cell Viability [1, 4] [%] | Cell Viability [1, 5] [%] | Cell Viability [2, 4] [%] | Cell Viability [2, 5] [%] | Cell Viability [3, 4] [%] | Cell Viability [3, 5] [%]
COc1cc(N2CCC(O)CC2)ccc1Nc1cc(Nc2ccccc2S(=O)(=O)C(C)C)c2cc[nH]c2n1 | 85.241 | 81.2438 | 92.4485 | 85.3579 | 108.341 | 84.332
CCc1cccc(CC)c1NC(=O)c1nn(C)c2c1CCc1cnc(Nc3ccc(C(=O)NC4CCN(C)CC4)cc3OC(F)(F)F)nc1-2 | 8.756 | 150.393 | 11.9525 | 117.182 | 94.5822 | 107.437
Cl.Cl.Cl.c1ccc(N2CCN(Cc3nc4ccccc4[nH]3)CC2)nc1 | 46.7197 | 192.419 | 99.1029 | 116.587 | 41.4322 | 124.541
O=C(Nc1cccnn1)N1CCC(=Cc2cccc(Oc3ccc(C(F)(F)F)cn3)c2)CC1 | 103.919 | 125.543 | 96.3845 | 120.944 | 75.4997 | 114.419
C[C@@H]1CCNC(=O)c2cc3ccc(C(=O)Nc4nc5ccccc5n4CCCN(C)C)cc3n21 | 65.6776 | 63.6239 | 75.4357 | 82.3994 | 65.8011 | 147.158
COc1cc(C)c(Sc2cnc(NC(=O)c3ccc(CNC(C)C(C)(C)C)cc3)s2)cc1C(=O)N1CCN(C(C)=O)CC1 (stereo not drawn) | 97.8632 | 73.4932 | 52.0168 | 58.5352 | 91.6907 | 97.5626
COc1ccccc1S(=O)(=O)Nc1ccc2c(c1)CN(C)C(=O)N2 | 75.1061 | 112.248 | 127.49 | 84.3735 | 112.453 | 99.8859
O=C(Nc1cccnc1)c1cc(-c2ccnc(F)c2)ccc1OCc1ccccc1 | 87.3368 | 83.1264 | 142.728 | 107.033 | 125.357 | 104.766
CNc1nc(Nc2cnn([C@H]3CCN(C4COC4)C[C@@H]3F)c2Cl)ncc1C(F)(F)F | 94.4056 | 87.0484 | 109.423 | 94.4968 | 197.594 | 86.9942
COc1cc2c(cc1NS(=O)(=O)c1ccc(Br)cc1C)n(C)c(=O)n2C | 53.0589 | 146.987 | 88.9015 | 103.244 | 86.7229 | 193.757
Clc1cccc(-c2nnnn2Cc2cccnc2)c1Cl | 149.518 | 281.873 | 96.2273 | 101.208 | 106.259 | 101.74
Cc1nc(N2CC[C@H](O)C2)ncc1-c1cc(C(F)(F)F)cc2[nH]ncc12 | 124.32 | 144.84 | 76.9456 | 116.548 | 47.2711 | 153.575
CC(C)(O)CNc1ncc(-c2ccnc(Nc3ccnc(Cl)c3)n2)c(CC2CC2)n1 | 30.6205 | 168.017 | 84.1319 | 170.669 | 67.8279 | 172.835
CCOc1cc(N2CCC(O)CC2)ccc1Nc1ncc2c(n1)N(C1CCCC1)CCC(=O)N2C | 80.3618 | 151.464 | 84.5477 | 160.888 | 51.7552 | 144.517
Cn1cc(-c2[nH]c3cc(NC(=O)[C@H](N)C4CCCCC4)cc4c3c2C=NNC4=O)cn1 | 9.334 | 180.436 | 1.912 | 87.1489 | 23.2406 | 172.741
O=C1CCc2cc(Nc3cc(OC4CCOCC4)c([N+](=O)[O-])cc3Cl)ccc2N1 | 74.579 | 100.938 | 98.9348 | 106.803 | 150.133 | 114.972
CCNC(=O)c1cc2c(N3CCOC[C@@H]3C)ccnc2n1C | 84.5961 | 69.3706 | 116.155 | 112.32 | 107.341 | 102.95

SMILES | Cell Viability [1, 4] [%] | Cell Viability [1, 5] [%] | Cell Viability [2, 4] [%] | Cell Viability [2, 5] [%] | Cell Viability [3, 4] [%] | Cell Viability [3, 5] [%]
O=C(Nc1ccc(-c2ccnc(Nc3ccc(N4CCOCC4)cc3)n2)cc1)[C@@H]1CCCN1 | 100.254 | 96.014 | 129.164 | 79.5845 | 139.273 | 76.0213
CCC(=O)Nc1cccc(Oc2nc(Nc3ccc(N4CCN(C)CC4)cc3OC)ncc2Cl)c1 | 92.8013 | 94.5997 | 157.299 | 90.5023 | 125.304 | 105.023
CCc1cc(Nc2nccc(-c3c(-c4ccc(OC)c(C(=O)Nc5c(F)cccc5F)c4)nc4ccccn34)n2)c(OC)cc1N1CCC(N2CCN(S(C)(=O)=O)CC2)CC1 | 86.7992 | 78.7013 | 103.898 | 108.534 | 117.027 | 82.2783
Cl.O=C(O)c1cc(-c2ccc(C3CCNCC3)cc2)c2ccc(-c3ccc(C(F)(F)F)cc3)cc2c1 | 107.895 | 117.47 | 158.935 | 99.9399 | 106.654 | 101.384
Cc1c(C(=O)O)cc(-c2ccc(C3CCNCC3)cc2)c2ccc(-c3ccc(C(F)(F)F)cc3)cc12.Cl | 69.2582 | 93.9723 | 68.1012 | 79.713 | 115.772 | 99.1911
C[C@@H](c1cccc(CN)c1)n1cc(Cl)cc(C(N)=O)c1=N.Cl | 104.535 | 114.984 | 112.906 | 94.626 | 85.1763 | 93.567
C[C@@H](c1cccc(C#N)c1)n1cc(Cl)cc(C(N)=O)c1=N.Cl | 92.5611 | 127.503 | 101.632 | 106.42 | 64.4613 | 72.4154
CC(C)S(=O)(=O)c1ccc2nccc(Nc3ccc4scnc4c3)c2c1 | 84.0973 | 95.5761 | 128.948 | 98.4032 | 147.82 | 98.2209
O=C(NCc1ccccc1)c1ccc(S(=O)(=O)NCc2ccccc2)cc1 | 32.2843 | 131.443 | 108.82 | 110.313 | 89.1581 | 96.8328
O=C(Nc1cccnn1)N1CC(C/C=C/c2cncc(Oc3ccc(C(F)(F)F)cn3)n2)C1 | 130.234 | 92.9489 | 132.074 | 108.992 | 97.9448 | 112.944
C[C@H]1CCCN1Cc1nc2cc(NC(=O)c3ccc4cnccc4c3)ccc2[nH]1 | 122.515 | 131.721 | 76.6817 | 109.65 | 98.7446 | 149.477
CC(=O)c1cc(-c2ccccc2OCC2CC2)c2ncccn12 | 107.249 | 181.775 | 107.478 | 95.946 | 91.2961 | 121.201
CCNC(=O)c1cc2c(N3CCOCC3C)ccnc2[nH]1 (stereo not drawn) | 130.766 | 119.513 | 143.994 | 130.326 | 144.452 | 100.256
Cc1cnc(Nc2ccc(F)cc2Cl)nc1-c1c[nH]c(C(=O)N[C@H](CO)c2cccc(Cl)c2)c1 | 51.8597 | 63.6391 | 47.0783 | 28.0153 | 6.88 | 113.857
CNC(=O)Nc1ccc(-c2nc(N3CC4CCC(C3)O4)c3cnn(C4CCC5(CC4)OCCO5)c3n2)cc1 | 4.885 | 48.532 | 29.4838 | 39.9364 | 5.83 | 97.6391
Cl.Cn1cncc1[C@](O)(COc1ccc(C#N)cc1-c1ccc(OC(F)(F)F)cc1)c1ccc(C#N)cc1 | 46.0933 | 149.066 | 31.1337 | 75.4889 | 15.3114 | 150.357
